≈ marks a conversion by molar mass, not a printed value.
Tests used:
[1] = system: Human immunodeficiency virus 1; assay: Antiviral activity against NNRTI-resistant HIV-1 harboring L100I mutant infected in human MT4 cells assessed as protection against virus-induced cytopathic effect by MTT assay; type: functional, organism-based; settings: Human immunodeficiency virus 1, MT4
[2] = system: Human immunodeficiency virus 1; assay: Antiviral activity against wild type HIV-1 infected in mouse harboring RES056 mutant at 10 mg/kg, po measured for 24 hrs; type: functional, organism-based; settings: Human immunodeficiency virus 1, 24 h
[3] = system: Human immunodeficiency virus 1; assay: Antiviral activity against NNRTI-resistant HIV-1 harboring Y188L mutant infected in human MT4 cells assessed as protection against virus-induced cytopathic effect by MTT assay; type: functional, organism-based; settings: Human immunodeficiency virus 1, MT4
[4] = Cytotoxicity against human MT4 cells assessed as reduction in cell viability by MTT assay; type: toxicity, cell-based
[5] = Cmax in Sprague-Dawley rat at 10 mg/kg, po measured upto 24 hrs by LC-MS/MS analysis; type: ADME, organism-based; settings: in vivo
[6] = Subacute toxicity in Kunming mouse assessed as heart damage at 50 mg/kg, po administered every 2 days for 2 weeks; type: organism-based; settings: in vivo, 336 h
[7] = system: Human immunodeficiency virus 1; assay: Antiviral activity against NNRTI-resistant HIV-1 harboring K103N mutant infected in human MT4 cells assessed as protection against virus-induced cytopathic effect by MTT assay; type: functional, organism-based; settings: Human immunodeficiency virus 1, MT4
[8] = Tmax in Sprague-Dawley rat at 2 mg/kg, iv measured upto 24 hrs by LC-MS/MS analysis; type: ADME, organism-based; settings: in vivo
[9] = AUC (0 to infinity) in Sprague-Dawley rat at 10 mg/kg, po measured upto 24 hrs by LC-MS/MS analysis; type: ADME, organism-based; settings: in vivo
[10] = system: Human immunodeficiency virus 1; assay: Antiviral activity against wild type HIV-1 infected in mouse harboring Y181C mutant at 10 mg/kg, po measured for 24 hrs; type: functional, organism-based; settings: Human immunodeficiency virus 1, 24 h
[11] = Subacute toxicity in Kunming mouse assessed as spleen damage at 50 mg/kg, po administered every 2 days for 2 weeks; type: organism-based; settings: in vivo, 336 h
[12] = Subacute toxicity in Kunming mouse assessed as liver damage at 50 mg/kg, po administered every 2 days for 2 weeks; type: organism-based; settings: in vivo, 336 h
[13] = system: Human immunodeficiency virus 1; assay: Antiviral activity against wild type HIV-1 IIIB infected in human MT4 cells assessed as protection against virus-induced cytopathic effect incubated for 5 days by MTT assay; type: functional, organism-based; settings: Human immunodeficiency virus 1, IIIB, MT4, 120 h
[14] = system: Human immunodeficiency virus 1; assay: Antiviral activity against wild type HIV-1 infected in mouse at 10 mg/kg, po measured for 24 hrs; type: functional, organism-based; settings: Human immunodeficiency virus 1, 24 h
[15] = Subacute toxicity in Kunming mouse assessed as anorexia at 50 mg/kg, po administered every 2 days for 2 weeks; type: organism-based; settings: in vivo, 336 h
[16] = system: Human immunodeficiency virus 1; assay: Antiviral activity against NNRTI-resistant HIV-1 harboring RES056 mutant infected in human MT4 cells assessed as protection against virus-induced cytopathic effect by MTT assay; type: functional, organism-based; settings: Human immunodeficiency virus 1, MT4
[17] = Selectivity index, ratio of CC50 for cytotoxicity against human MT4 cells assessed as reduction in cell viability by MTT assay to EC50 for antiviral activity against wild type HIV-1 IIIB infected in human MT4 cells assessed as protection against virus-induced cytopathic effect; type: toxicity, cell-based; settings: read-out: Ratio CC50/EC50
[18] = Half life in Sprague-Dawley rat at 2 mg/kg, iv measured upto 24 hrs by LC-MS/MS analysis; type: ADME, organism-based; settings: in vivo
[19] = system: Human immunodeficiency virus 1; assay: Antiviral activity against wild type HIV-1 infected in mouse harboring E138K mutant at 10 mg/kg, po measured for 24 hrs; type: functional, organism-based; settings: Human immunodeficiency virus 1, 24 h
[20] = AUC (0 to t ) in Sprague-Dawley rat at 2 mg/kg, iv measured upto 24 hrs by LC-MS/MS analysis; type: ADME, organism-based; settings: in vivo
[21] = AUC (0 to t ) in Sprague-Dawley rat at 10 mg/kg, po measured upto 24 hrs by LC-MS/MS analysis; type: ADME, organism-based; settings: in vivo
[22] = system: Human immunodeficiency virus 1; assay: Antiviral activity against NNRTI-resistant HIV-1 harboring E138K mutant infected in human MT4 cells assessed as protection against virus-induced cytopathic effect by MTT assay; type: functional, organism-based; settings: Human immunodeficiency virus 1, MT4
[23] = Subacute toxicity in Kunming mouse assessed as lethargy at 50 mg/kg, po administered every 2 days for 2 weeks; type: organism-based; settings: in vivo, 336 h
[24] = Tmax in Sprague-Dawley rat at 10 mg/kg, po measured upto 24 hrs by LC-MS/MS analysis; type: ADME, organism-based; settings: in vivo
[25] = system: Human immunodeficiency virus 1; assay: Antiviral activity against wild type HIV-1 infected in mouse harboring K103N mutant at 10 mg/kg, po measured for 24 hrs; type: functional, organism-based; settings: Human immunodeficiency virus 1, 24 h
[26] = Acute toxicity in Kunming mouse assessed as behavioral abnormalities at 2000 mg/kg, po measured for 7 days; type: organism-based; settings: in vivo, 168 h, time 7 day
[27] = Clearance in Sprague-Dawley rat at 2 mg/kg, iv measured upto 24 hrs by LC-MS/MS analysis; type: ADME, organism-based; settings: in vivo
[28] = Half life in Sprague-Dawley rat at 10 mg/kg, po measured upto 24 hrs by LC-MS/MS analysis; type: ADME, organism-based; settings: in vivo
[29] = system: Human immunodeficiency virus 1; assay: Antiviral activity against wild type HIV-1 infected in mouse harboring L100I mutant at 10 mg/kg, po measured for 24 hrs; type: functional, organism-based; settings: Human immunodeficiency virus 1, 24 h
[30] = Solubility of compound at pH 2 incubated for 2 hrs by HPLC analysis; type: physicochemical; settings: buffer
[31] = Acute toxicity in Kunming mouse assessed as change in body weight at 2000 mg/kg, po measured for 7 days; type: organism-based; settings: in vivo, 168 h, time 7 day
[32] = Subacute toxicity in Kunming mouse assessed as kidney damage at 50 mg/kg, po administered every 2 days for 2 weeks; type: organism-based; settings: in vivo, 336 h
[33] = system: Human immunodeficiency virus 1; assay: Antiviral activity against NNRTI-resistant HIV-1 harboring Y181C mutant infected in human MT4 cells assessed as protection against virus-induced cytopathic effect by MTT assay; type: functional, organism-based; settings: Human immunodeficiency virus 1, MT4
[34] = Subacute toxicity in Kunming mouse assessed as lung damage at 50 mg/kg, po administered every 2 days for 2 weeks; type: organism-based; settings: in vivo, 336 h
[35] = system: Human immunodeficiency virus 1; assay: Antiviral activity against wild type HIV-1 infected in mouse harboring […] mutant at 10 mg/kg, po measured for 24 hrs; type: functional, organism-based; settings: Human immunodeficiency virus 1, 24 h
[36] = target: Human immunodeficiency virus type 1 reverse transcriptase (Human immunodeficiency virus 1, UniProt Q72547); assay: Inhibition of wild type HIV-1 Reverse transcriptase assessed as reduction of biotin-dUTP incorporation into […] using ABTS as substrate preincubated with compound for 1 hr followed by substrate addition in presence of biotin-labeled dNTPs by ELISA analysis
[37] = AUC (0 to infinity) in Sprague-Dawley rat at 2 mg/kg, iv measured upto 24 hrs by LC-MS/MS analysis; type: ADME, organism-based; settings: in vivo
[38] = Water solubility of compound at pH 7 incubated for 2 hrs by HPLC analysis; type: physicochemical
[39] = Subacute toxicity in Kunming mouse assessed as ruffled fur at 50 mg/kg, po administered every 2 days for 2 weeks; type: organism-based; settings: in vivo, 336 h
[40] = Water solubility of compound at pH 7.4 incubated for 2 hrs by HPLC analysis; type: physicochemical
[41] = Subacute toxicity in Kunming mouse assessed as clonic convulsion at 50 mg/kg, po administered every 2 days for 2 weeks; type: organism-based; settings: in vivo, 336 h
[42] = Oral bioavailability in Sprague-Dawley rat at 10 mg/kg measured upto 24 hrs by LC-MS/MS analysis; type: ADME, organism-based; settings: in vivo
[43] = Cmax in Sprague-Dawley rat at 2 mg/kg, iv measured upto 24 hrs by LC-MS/MS analysis; type: ADME, organism-based; settings: in vivo

Question: Which EC50 [1] does the source give for `Cn1c(Cn2ccc(C(F)(F)F)c(Oc3cc(Cl)cc(-c4ccc(Br)cc4)c3)c2=O)n[nH]c1=O` here?
Answer: The EC50 was 11 nM.

Question: And the EC50 [2]?
Answer: Its EC50 is 56 nM.

Question: And the EC50 [3]?
Answer: The EC50 was 703 nM.

Question: What about the CC50 [4] of the same compound?
Answer: The CC50 was 118000 nM.

Question: What about the Cmax [5] of the same compound?
Answer: The Cmax was 3340 ng/mL.

Question: What about the Activity [6] of the same compound?
Answer: Its Activity is “Non-Toxic”.

Question: And the EC50 [7]?
Answer: The EC50 was 13 nM.

Question: And the Tmax [8]?
Answer: The Tmax was 3 min.

Question: And the AUC(0-inf) [9]?
Answer: Its AUC(0-inf) is 41800 ng·h/mL.

Question: What about the EC50 [10] of the same compound?
Answer: The EC50 was 16 nM.

Question: And the Activity [11]?
Answer: Its Activity is “Non-Toxic”.

Question: What about the Activity [12] of the same compound?
Answer: The Activity was “Non-Toxic”.

Question: And the EC50 [13]?
Answer: Its EC50 is 9 nM.

Question: What about the EC50 [14] of the same compound?
Answer: The EC50 was 9 nM.

Question: What about the Activity [15] of the same compound?
Answer: The Activity was “Non-Toxic”.

Question: And the EC50 [16]?
Answer: The EC50 was 59 nM.

Question: And the selectivity ratio [17]?
Answer: The selectivity ratio was 13100.

Question: What about the half-life [18] of the same compound?
Answer: The half-life was 4.49 h.

Question: And the EC50 [19]?
Answer: Its EC50 is 13 nM.

Question: And the AUC(0-t) at 24 h [20]?
Answer: Its AUC(0-t) at 24 h is 5490 ng·h/mL.

Question: And the AUC(0-t) at 24 h [21]?
Answer: The AUC(0-t) at 24 h was 39600 ng·h/mL.

Question: What about the EC50 [22] of the same compound?
Answer: The EC50 was 13 nM.

Question: And the Activity [23]?
Answer: The Activity was “Non-Toxic”.

Question: And the Tmax [24]?
Answer: The Tmax was 4 h.

Question: And the EC50 [25]?
Answer: Its EC50 is 13 nM.

Question: And the Activity [26]?
Answer: Its Activity is “Non-Toxic”.

Question: And the clearance [27]?
Answer: The clearance was 4.35 mL/min/kg.

Question: What about the half-life [28] of the same compound?
Answer: The half-life was 5.09 h.

Question: What about the EC50 [29] of the same compound?
Answer: The EC50 was 11 nM.

Question: And the solubility at 2 h [30]?
Answer: The solubility at 2 h was 107 µg/mL (≈ 193 µM).

Question: And the Activity [31]?
Answer: Its Activity is “Non-Toxic”.

Question: What about the Activity [32] of the same compound?
Answer: Its Activity is “Non-Toxic”.

Question: What about the EC50 [33] of the same compound?
Answer: The EC50 was 18 nM.

Question: And the Activity [34]?
Answer: Its Activity is “Non-Toxic”.

Question: And the EC50 [35]?
Answer: The EC50 was 703 nM.

Question: And the IC50 [36]?
Answer: Its IC50 is 40 nM.

Question: And the AUC(0-inf) [37]?
Answer: Its AUC(0-inf) is 7670 ng·h/mL.

Question: What about the solubility at 2 h [38] of the same compound?
Answer: The solubility at 2 h was 45.7 µg/mL (≈ 82.2 µM).

Question: What about the Activity [39] of the same compound?
Answer: The Activity was “Non-Toxic”.

Question: And the solubility at 2 h [40]?
Answer: The solubility at 2 h was 32.2 µg/mL (≈ 57.9 µM).

Question: What about the Activity [41] of the same compound?
Answer: Its Activity is “Non-Toxic”.

Question: What about the bioavailability [42] of the same compound?
Answer: Its bioavailability is 109%.

Question: And the Cmax [43]?
Answer: Its Cmax is 1950 ng/mL.
